Measured values taken from the supplement of paper PMC10307832.

How the values were obtained:
Assay in all cases: relative viability (nuclei count vs DMSO), 5 days (fraction); higher = more cells survive
Selumetinib + AZD7762 = compound: Cn1cnc2c(F)c(Nc3ccc(Br)cc3Cl)c(C(=O)NOCCO)cc21 [Selumetinib] + NC(=O)Nc1cc(-c2cccc(F)c2)sc1C(=O)N[C@H]1CCCNC1 [AZD7762] (partner 0.2 µM)
In short: (§1)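 Medians of duplicate plates are given as relative viability. That measure is the nuclei count in treated wells divided by the count in vehicle wells. Counts were taken on 4× images of lung cancer cell lines in 1536-well plates, 5 days after pin-tool dosing the day after seeding with one drug alone or a fixed anchor-drug dose plus five library-drug doses (not always all listed) in √10 steps.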

[1] = compound: Cn1cnc2c(F)c(Nc3ccc(Br)cc3Cl)c(C(=O)NOCCO)cc21 [Selumetinib] + CC(=O)c1c(C)c2cnc(Nc3ccc(N4CCNCC4)cn3)nc2n(C2CCCC2)c1=O [Palbociclib] (partner 0.5 µM)
In short: as §1

Venetoclax + Alpelisib = compound: CC1(C)CCC(CN2CCN(c3ccc(C(=O)NS(=O)(=O)c4ccc(NCC5CCOCC5)c([N+](=O)[O-])c4)c(Oc4cnc5[nH]ccc5c4)c3)CC2)=C(c2ccc(Cl)cc2)C1 [Venetoclax] + Cc1nc(NC(=O)N2CCC[C@H]2C(N)=O)sc1-c1ccnc(C(C)(C)C(F)(F)F)c1 [Alpelisib] (partner 2 µM)
In short: as §1

Selumetinib + Bortezomib = compound: Cn1cnc2c(F)c(Nc3ccc(Br)cc3Cl)c(C(=O)NOCCO)cc21 [Selumetinib] + CC(C)C[C@H](NC(=O)[C@H](Cc1ccccc1)NC(=O)c1cnccn1)B(O)O [Bortezomib] (partner 0.002 µM)
In short: as §1

Cell Line	relative viability (Selumetinib + AZD7762; first compound 0.02 µM)	relative viability (Selumetinib + AZD7762; first compound 0.06325 µM)	relative viability (Selumetinib + AZD7762; first compound 0.2 µM)	relative viability (Selumetinib + AZD7762; first compound 0.6325 µM)	relative viability ([1]; first compound 0.02 µM)	relative viability ([1]; first compound 0.06325 µM)	relative viability ([1]; first compound 0.2 µM)	relative viability ([1]; first compound 0.6325 µM)	relative viability (Venetoclax + Alpelisib; first compound 0.01 µM)	relative viability (Venetoclax + Alpelisib; first compound 0.03162 µM)	relative viability (Venetoclax + Alpelisib; first compound 0.1 µM)	relative viability (Venetoclax + Alpelisib; first compound 0.3162 µM)	relative viability (Venetoclax + Alpelisib; first compound 1 µM)	relative viability (Selumetinib + Bortezomib; first compound 0.02 µM)	relative viability (Selumetinib + Bortezomib; first compound 0.06325 µM)	relative viability (Selumetinib + Bortezomib; first compound 0.2 µM)	relative viability (Selumetinib + Bortezomib; first compound 0.6325 µM)
NCI-H522	0.728	0.781	0.842	0.828	0.98	0.92	0.755	0.793	–	–	–	–	–	–	–	–	–
HCC-366	0.27	0.324	0.253	0.166	0.3	0.31	0.256	0.143	0.5	0.425	0.448	0.501	0.317	1.07	0.935	0.864	0.761
A-427	0.7	0.613	0.628	0.618	0.503	0.496	0.51	0.538	1.02	1.09	1.13	1.07	1.17	1.06	0.978	1.05	0.959
NCI-H2347	0.678	0.568	0.454	0.343	0.401	0.435	0.388	0.361	1.04	1.04	1.06	1	1.04	0.755	0.817	0.6	0.45
NCI-H1792	0.571	0.447	0.417	0.393	0.646	0.566	0.46	0.4	0.674	0.669	0.542	0.616	0.622	0.852	0.789	0.706	0.677
LCLC-97TM1	0.244	0.179	0.219	0.136	0.188	0.213	0.163	0.19	–	0.317	0.248	0.241	0.249	0.522	0.379	0.294	0.157
RERF-LC-KJ	0.992	0.977	0.892	0.906	1.03	0.946	0.84	0.908	0.769	0.871	0.736	0.91	0.779	1.05	1.01	0.92	0.944
NCI-H1993	0.842	0.733	0.634	0.666	0.592	0.557	0.527	0.427	0.676	0.696	0.665	0.617	0.68	0.861	0.897	0.873	0.806
NCI-H1734	0.512	0.5	0.495	0.515	0.304	0.332	0.36	0.313	0.682	0.732	0.624	0.628	0.689	1.04	0.819	1.02	0.835
HCC-44	1.07	1.08	1.02	1.16	1	0.971	1.01	1.09	0.795	0.745	0.64	0.754	0.705	0.993	0.882	0.945	0.971
SK-MES-1	–	–	–	–	0.304	0.322	0.315	0.264	0.857	0.898	0.887	0.788	0.831	–	–	–	–
EPLC-272H	0.24	0.19	0.281	0.476	0.271	0.256	0.287	0.232	–	0.95	0.986	1.11	0.977	0.966	0.864	0.779	0.567
NCI-H838	0.87	0.844	0.878	0.824	0.206	0.191	0.201	0.203	1.11	0.953	1.04	1.04	0.955	0.695	0.59	0.679	0.513
SK-LU-1	–	–	–	–	0.381	0.353	0.362	0.263	0.899	1.15	0.855	0.981	0.854	1.25	1.28	0.918	0.715
Calu-6	–	–	–	–	–	–	–	–	0.946	0.917	0.98	1.02	0.998	1.07	0.792	0.648	0.558
LCLC-103H	0.722	0.761	0.749	0.64	0.467	0.498	0.469	0.439	1.04	0.983	1.04	1	0.974	1.01	1.06	0.993	0.978
CAL-12T	0.64	0.574	0.566	0.568	0.385	0.26	0.222	0.191	1.25	1.08	1.01	1.43	1.25	0.768	0.935	0.849	0.772
SW 1573	–	–	–	–	0.337	0.294	0.365	0.312	0.74	0.754	0.632	0.758	0.681	1.01	0.86	0.802	0.932
NCI-H1666	0.853	0.758	0.759	0.732	0.669	0.649	0.699	0.668	0.8	0.89	1.13	0.971	1.04	0.595	0.586	0.63	0.495
BEN	0.587	0.624	0.634	0.736	0.466	0.53	0.462	0.509	0.976	1.07	0.756	1.06	1.01	0.779	0.854	0.686	0.834
EMC-BAC-2	1.16	1.11	0.913	1.08	0.554	0.53	0.55	0.52	0.707	0.744	0.747	0.73	0.687	1.06	1.07	1.01	0.999
NCI-H1299	–	–	–	–	–	–	–	–	1.02	1.03	1.06	1.04	1.03	1.08	1.09	1.07	0.977
ABC-1	0.871	0.591	0.66	0.578	0.642	0.672	0.555	0.5	0.933	0.996	0.853	0.967	1.01	0.279	0.258	0.275	0.291
NCI-H2170	0.874	0.88	0.711	0.838	0.406	0.43	0.414	0.414	0.769	0.739	0.75	0.825	0.788	–	–	–	–

Cell Line	relative viability (Selumetinib + AZD7762; first compound 0.02 µM)	relative viability (Selumetinib + AZD7762; first compound 0.06325 µM)	relative viability (Selumetinib + AZD7762; first compound 0.2 µM)	relative viability (Selumetinib + AZD7762; first compound 0.6325 µM)	relative viability ([1]; first compound 0.02 µM)	relative viability ([1]; first compound 0.06325 µM)	relative viability ([1]; first compound 0.2 µM)	relative viability ([1]; first compound 0.6325 µM)	relative viability (Venetoclax + Alpelisib; first compound 0.01 µM)	relative viability (Venetoclax + Alpelisib; first compound 0.03162 µM)	relative viability (Venetoclax + Alpelisib; first compound 0.1 µM)	relative viability (Venetoclax + Alpelisib; first compound 0.3162 µM)	relative viability (Venetoclax + Alpelisib; first compound 1 µM)	relative viability (Selumetinib + Bortezomib; first compound 0.02 µM)	relative viability (Selumetinib + Bortezomib; first compound 0.06325 µM)	relative viability (Selumetinib + Bortezomib; first compound 0.2 µM)	relative viability (Selumetinib + Bortezomib; first compound 0.6325 µM)
EBC-1	–	–	–	–	–	–	–	–	0.815	0.869	0.806	0.831	0.875	0.759	0.625	0.578	0.304
NCI-H2023	–	–	–	–	0.355	0.299	0.304	0.339	0.574	0.573	0.544	0.553	0.551	0.899	0.785	0.895	0.896
NCI-H2228	–	–	–	–	0.566	0.516	0.669	0.481	0.696	0.842	0.698	0.628	0.757	0.923	0.989	0.75	0.584
NCI-H1650	–	–	–	–	0.312	0.26	0.357	0.27	–	–	–	–	–	0.199	0.172	0.215	0.222
NCI-H2342	0.551	0.436	0.474	0.568	0.476	0.53	0.498	0.482	–	–	–	–	–	–	–	–	–
ChaGo-K-1	0.865	0.845	0.905	0.899	0.94	0.966	0.895	0.848	–	–	–	–	–	0.959	0.993	0.942	1.05
COR-L23	–	–	–	–	0.311	0.289	0.301	0.241	0.7	0.753	0.745	0.766	0.741	1.27	0.939	1.06	0.968
COR-L 105	–	–	–	–	0.449	0.404	0.383	0.392	0.983	0.959	1.13	0.91	1.02	0.813	0.477	0.609	0.567
LK-2	0.474	0.425	0.502	0.243	0.772	0.851	0.706	0.802	0.993	1.28	1.12	1.19	1.06	–	–	–	–
NCI-H661	–	–	–	–	0.415	0.384	0.418	0.382	0.597	1.11	0.878	0.569	0.48	0.751	0.847	0.722	0.575
NCI-H1944	0.448	0.438	0.401	0.427	0.303	0.312	0.253	0.231	1.12	0.836	0.779	0.864	0.845	–	–	–	–
NCI-H1793	0.408	0.394	0.406	0.297	0.267	0.293	0.249	0.199	0.8	0.737	0.595	0.711	0.613	–	–	–	–
A549	–	–	–	–	–	–	–	–	0.755	0.706	0.868	0.85	0.716	–	–	–	–
NCI-H596	1.06	1.14	1.02	0.768	–	–	–	–	0.516	0.487	0.502	0.544	0.397	0.92	0.93	0.835	0.621
NCI-H358	0.374	0.349	0.385	0.367	0.123	0.125	0.127	0.125	0.769	0.828	0.786	0.903	0.839	–	–	–	–
NCI-H1395	0.389	0.38	0.391	0.355	0.561	0.558	0.574	0.54	0.989	0.943	0.926	0.983	0.961	–	–	–	–
SW 900	0.59	0.636	0.611	0.553	0.597	0.461	0.446	0.495	–	–	–	–	–	–	–	–	–
NCI-H2009	–	–	–	–	0.15	0.136	0.122	0.143	1.1	1.15	1.16	1.11	1.07	0.788	0.591	0.538	0.362
NCI-H1703	0.157	0.119	–	0.134	–	–	–	–	0.361	0.436	0.349	0.385	0.303	0.309	0.255	0.403	0.434
NCI-H520	–	–	–	–	0.211	0.236	0.237	0.258	0.893	1.09	0.865	0.796	0.847	0.635	0.47	0.498	0.575
NCI-H1563	–	–	–	–	–	–	–	–	1.03	0.938	0.852	0.987	1.03	0.804	0.68	0.726	0.786
IA-LM	–	–	–	–	–	–	–	–	0.614	0.726	0.892	0.61	0.604	0.742	0.497	0.304	0.257
NCI-H1648	–	0.737	0.733	0.67	–	0.307	0.237	0.296	–	–	–	–	–	–	–	–	–
